Experimental data reported in ChEMBL document CHEMBL6115029, “Discovery of Daraxonrasib (RMC-6236), a Potent and Orally Bioavailable RAS(ON) Multi-selective, Noncovalent Tri-complex Inhibitor for the Treatment of Patients with Multiple RAS-Addicted Cancers” (J Med Chem, 2025).
≈ marks a conversion by molar mass, not a printed value. Calls of active or inactive are those of the source. The rule behind the calls is not given here.

Assays:
[1] = Volume of distribution at steady state in female BALB/c mouse at 1 mg/kg, iv measured after 24 hrs by LC-MS/MS analysis; format: ADME, organism-based; settings: in vivo, read-out: Vdss
[2] = Genotoxicity in Salmonella typhimurium by Ames test; format: toxicity; settings: salmonella enterica subsp. enterica serovar typhimurium
[3] = Volume of distribution at steady state in male Beagle dog at 1 mg/kg, iv measured after 24 hrs by LC-MS/MS analysis; format: ADME, organism-based, Canis lupus familiaris; settings: in vivo, read-out: Vdss
[4] = Inhibition of 6His-tagged wildtype KRAS (1 to 169 residues)/GST-tagged GMPPNP-bound BRAF RBD (155 to 229 reisudes)/Cyclophilin A (unknown origin) tri-complex protein-protein interaction incubated for 3 hrs by TR-FERT based disruption assay; parameters: species or system Homo sapiens
[5] = In vivo inhibition of MAPK signaling pathway in female BALB/c nude mouse xenografted with human MIA PaCa-2 cells harboring KRAS G12C/G12C mutant assessed as reduction in DUSP6 mRNA level in tumor at 25 mg/kg, po administered as single dose and measured after 8 hrs by qPCR analysis relative to control; format: functional
[6] = test system: HPAF-II; test: Antitumor activity against human HPAF-II cells harboring wildtype KRAS/KRAS G12D mutant xenografted in female BALB/c mouse model assessed as tumor regression at 25 mg/kg, po administered once daily for 28 days; format: functional, organism-based; settings: time 28.0 day
[7] = Tmax in male cynomolgus monkey at 10 mg/kg, po measured after 24 hrs by LC-MS/MS analysis; format: ADME, organism-based, Macaca fascicularis; settings: in vivo
[8] = Volume of distribution at steady state in male cynomolgus monkey at 1 mg/kg, iv measured after 24 hrs by LC-MS/MS analysis; format: ADME, organism-based, Macaca fascicularis; settings: in vivo, read-out: Vdss
[9] = test system: HCT-116; test: Inhibition of ERK1/2 phosphorylation in human HCT-116 cells harboring KRAS G13D mutant incubated for 4 hrs by AlphaLISA assay; format: cell-based
[10] = Kinetic solubility of compound in PBS at pH 5.0 measured after 5 hrs by UV analysis; format: physicochemical; settings: read-out: Kinetic_solubility
[11] = Kinetic solubility of compound in PBS at pH 7.4 measured after 5 hrs by UV analysis; format: physicochemical; settings: read-out: Kinetic_solubility
[12] = Metabolic stability in mouse liver microsomes assessed as half-life at 2 uM measured upto 60 mins in presence of NADPH by LC-MS/MS analysis; format: ADME, Microsome
[13] = Half-life in male Beagle dog at 5 mg/kg, po measured after 24 hrs by LC-MS/MS analysis; format: ADME, organism-based, Canis lupus familiaris; settings: in vivo
[14] = test system: SK-MEL-30; test: Inhibition of ERK1/2 phosphorylation in human SK-MEL-30 cells harboring […] mutant incubated for 4 hrs by AlphaLISA assay; format: cell-based
[15] = Oral bioavailability in female BALB/c mouse plasma at 10 mg/kg measured after 24 hrs by LC-MS/MS analysis; format: ADME, organism-based
[16] = Toxicity in human PBL cells in absence of rat S9 fraction by micronucleus assay; format: cell-based
[17] = Volume of distribution at steady state in male Sprague-Dawley rat at 1 mg/kg, iv measured after 24 hrs by LC-MS/MS analysis; format: ADME, organism-based; settings: in vivo, read-out: Vdss
[18] = Clearance in male Sprague-Dawley rat at 1 mg/kg, iv measured after 24 hrs by LC-MS/MS analysis; format: ADME, organism-based; settings: in vivo
[19] = test system: A-375; test: Cytotoxicity against human A-375 cells assessed as reduction in cell viability incubated for 120 hrs by CellTiter-Glo luminescence assay; format: functional, cell-based; settings: A-375, 120 h
[20] = Lipophilicity, logD of compound at pH 7.4 by Agilent 1290 II uPLC analysis; format: physicochemical; settings: buffer
[21] = Toxicity in female BALB/c nude mouse xenografted with human MIA PaCa-2 cells harboring KRAS G12C/G12C mutant assessed as effect on body weight at 25 mg/kg, po administered once daily for 28 days; format: organism-based; settings: in vivo, 672 h, time 28 day
[22] = Toxicity in female BALB/c nude mouse xenografted with human NCI-H441 cells harboring wildtype KRAS/KRAS G12V mutant assessed as effect on body weight at 25 mg/kg, po administered once daily for 28 days; format: organism-based; settings: in vivo, 672 h, time 28 day
[23] = Efflux ratio of apparent permeability in human Caco-2 cells at 5 uM incubated for 2 hrs by LC-MS/MS analysis; format: ADME, cell-based
[24] = Mutagenicity in Salmonella typhimurium by Ames test; format: toxicity; settings: salmonella enterica subsp. enterica serovar typhimurium
[25] = test system: PSN1; test: Cytotoxicity against human PSN1 cells harboring KRAS G12R mutant cultured as 2D cells assessed as inhibition of cell proliferation incubated for 120 hrs by CellTiter-Glo luminescence assay; format: functional, cell-based
[26] = Oral bioavailability in male Sprague-Dawley rat at 60 mg/kg measured after 24 hrs by LC-MS/MS analysis; format: ADME, organism-based; settings: in vivo
[27] = Half-life in female BALB/c mouse at 10 mg/kg, po measured after 24 hrs by LC-MS/MS analysis; format: ADME, organism-based; settings: in vivo
[28] = Half-life in male Beagle dog at 1 mg/kg, iv measured after 24 hrs by LC-MS/MS analysis; format: ADME, organism-based, Canis lupus familiaris; settings: in vivo
[29] = test system: NCI-H441; test: Cytotoxicity against human NCI-H441 cells harboring KRAS G12V mutant cultured as 2D cells assessed as inhibition of cell proliferation incubated for 120 hrs by CellTiter-Glo luminescence assay; format: functional, cell-based
[30] = test system: Hs766T; test: Inhibition of ERK1/2 phosphorylation in human Hs766T cells harboring […] mutant incubated for 4 hrs by AlphaLISA assay; format: cell-based
[31] = Inhibition of ERK1/2 phosphorylation in human ASPC1 cells harboring KRAS G12D mutant incubated for 4 hrs by AlphaLISA assay; format: cell-based; settings: ASPC1, 4 h
[32] = Ratio of drug concentration in mouse blood to plasma at 0.1 uM measured upto 120 mins by LC-MS/MS analysis; format: ADME, cell-free
[33] = Clearance in female BALB/c mouse plasma at 1 mg/kg, iv measured after 24 hrs by LC-MS/MS analysis; format: ADME, organism-based
[34] = Oral bioavailability in male Beagle dog at 5 mg/kg measured after 24 hrs by LC-MS/MS analysis; format: ADME, organism-based, Canis lupus familiaris; settings: in vivo
[35] = Toxicity in human PBL cells in presence of rat S9 fraction by micronucleus assay; format: subcellular
[36] = test system: NCI-H1975; test: Inhibition of ERK1/2 phosphorylation in human NCI-H1975 cells harboring wildtype KRAS incubated for 4 hrs by AlphaLISA assay; format: cell-based
[37] = Ratio of drug concentration in mouse blood to plasma at 10 uM measured upto 120 mins by LC-MS/MS analysis; format: ADME, cell-free
[38] = Inhibition of 6His-tagged KRAS G12C mutant(1 to 169 residues)/GST-tagged GMPPNP-bound BRAF RBD (155 to 229 reisudes)/Cyclophilin A (unknown origin) tri-complex protein-protein interaction incubated for 3 hrs by TR-FERT based disruption assay; parameters: species or system Homo sapiens
[39] = test system: HCT-116; test: Cytotoxicity against human HCT-116 cells harboring KRAS G13D mutant cultured as 2D cells assessed as inhibition of cell proliferation incubated for 120 hrs by CellTiter-Glo luminescence assay; format: functional, cell-based
[40] = test system: NCI-H1975; test: Cytotoxicity against human NCI-H1975 cells harboring wildtype KRAS cultured as 2D cells assessed as reduction in cell viability incubated for 120 hrs by CellTiter-Glo luminescence assay; format: functional, cell-based; settings: NCI-H1975, 120 h

Vd [1]: 1.3 L/kg | Vd [3]: 2.1 L/kg | IC50 [4]: 92 nM | Tmax [7]: 3.7 h | Vd [8]: 2.9 L/kg | solubility kinetic at 5 h [10]: > 100 µM | solubility kinetic at 5 h [11]: 71 µM (≈ 57.6 µg/mL) | half-life at 2 µM [12]: 1.13 h | half-life [13]: 5.3 h | bioavailability [15]: 52% | Vd [17]: 1.9 L/kg | clearance [18]: 21.7 mL/min/kg | logD [20]: 4.5 | efflux ratio at 2 h, 5 µM [23]: 21 | bioavailability [26]: 27% | half-life [27]: 2.4 h | half-life [28]: 6.1 h | EC50 [31]: 3.6 nM | blood plasma ratio at 2 h, 0.1 µM [32]: 4.2 | clearance [33]: 40 mL/min/kg | bioavailability [34]: 33% | blood plasma ratio at 2 h, 10 µM [37]: 1.1 | IC50 [38]: 35 nM
SMILES: CCn1c(-c2cc(N3CCN(C)CC3)cnc2[C@H](C)OC)c2c3cc(ccc31)-c1csc(n1)C[C@H](NC(=O)[C@H]1C[C@@H]1C)C(=O)N1CCC[C@H](N1)C(=O)OCC(C)(C)C2
Activity [2]: Non-toxic | inhibition in vivo at 25 mg/kg [5]: 98% | Activity [6]: Active | inhibition [9]: Active | inhibition [14]: Active | Activity [16]: Non-toxic | EC50 [19]: 7210 nM | Activity [21]: Non-toxic | Activity [22]: Non-toxic | Activity [24]: Non-toxic | Activity [25]: Active | Activity [29]: Active | inhibition [30]: Active | Activity [35]: Non-toxic | inhibition [36]: Active | Activity [39]: Active | EC50 [40]: 1.4 nM
